Measured values taken from patent publication US8383838B2, “5-oxo-2,3,4,5-tetrahydro-benzo[b]oxepine-4-carboxylic acid amides and 2,3-dihydro-benzo[b]oxepine-4-carboxylic acid amides for treatment and prevention of diabetes typ 1 and 2” (Merck Patent Gesellschaft mit Beschränkter Haftung, priority 2008, dated 2013).

Target: T1, human GK (Homo sapiens, UniProt P35557)
T1 sequence (P35557 1-465): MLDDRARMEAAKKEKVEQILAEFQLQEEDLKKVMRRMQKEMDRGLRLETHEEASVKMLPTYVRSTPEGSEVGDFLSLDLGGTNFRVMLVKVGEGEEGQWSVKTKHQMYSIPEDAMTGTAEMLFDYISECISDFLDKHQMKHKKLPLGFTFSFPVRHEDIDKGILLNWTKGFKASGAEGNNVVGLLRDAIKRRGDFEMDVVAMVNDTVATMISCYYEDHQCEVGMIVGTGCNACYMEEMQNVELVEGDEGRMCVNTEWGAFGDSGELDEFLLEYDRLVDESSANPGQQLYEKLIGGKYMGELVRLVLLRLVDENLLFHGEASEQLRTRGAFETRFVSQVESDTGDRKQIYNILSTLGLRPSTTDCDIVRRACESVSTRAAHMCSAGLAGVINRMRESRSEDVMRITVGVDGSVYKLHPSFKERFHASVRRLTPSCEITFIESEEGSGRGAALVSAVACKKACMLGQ
Experiment: Glucokinase Activation Screening Assay (coupled enzyme assay with PK and LDH)
Type: biochemical
Conditions: activation of human GK in percent of control (control incubation: 2 mM glucose, 0.91% DMSO); compound concentration not stated
Procedure: Glucokinase Activation Screening Assay
GK activity (human or rat enzyme) is measured by a coupled enzyme assay using pyruvate kinase (PK) and lactate dehydrogenase (LDH) as coupling enzymes. GK activity is calculated from the decline in NADH monitored photometrically with a microtiter plate (MTP) reader at 340 nm.
For screening purposes, the GK assay is routinely run in a 384-MTP format, in a total volume of 33 μl/well. 10 μl of the ATP-regeneration solution (in HEPES-buffer*, pH 7.0, 6.73 U/ml pyruvate kinase, 6.8 U/ml lactate dehydrogenase) and 10 μl of the glucokinase-/glucose solution (15 μg/ml, 6.6 mM glucose in HEPES-buffer*, pH 7.0; the concentration of the glucose stock-solution was 660 mM in Millipore H2O) were mixed together with […] of a 10% DMSO solution (in HEPES-buffer*, pH 7.0) containing 3.3-fold the amounts of the compounds to achieve final compound concentrations in the range between 1 nM to 30 μM (sometimes 300 μM) in the assay solution (s. below). The solutions were mixed for 5 sec, and after a centrifugation at 243×g for 5 min, the solutions were preincubated for 25 min at room temperature.
The reaction was started by the addition of 10 μl of the NADH-/ATP-solution (4.29 mM NADH, 4.95 mM ATP, in HEPES-buffer*). The MTP was shaken for 5 sec., and then, the absorbance at 340 nm was monitored continuously in a MTP-reader (TECAN Spectro fluor plus) for the next 27 min (with a MTP-cycling time of 199 sec.). The final concentrations of the various components were as follows: 49.5 mM Hepes, pH 7.0, 1.49 mM PEP, 1,3 mM NADH, 49.5 mM KCl, 4.96 mM MgCl2, 1.5 mM Mg-ATP, 1.98 mM DTT, 2.04 U/ml pyruvate kinase, 2.06 U/ml lactate-dehydrogenase, 0.91% DMSO, 0.15 μg/well glucokinase, and test compounds in the range between 1 nM and 300 μM.
The change in the optical density (ΔOD340 nm) in the presence of the compound was expressed relative to the ΔOD340 nm, ctrl of the control incubation (in the presence of 2 mM glucose and 0.91% DMSO), taking into account the optical density of the blank sample (incubation in the absence of 2 mM glucose). For the determination of the half maximal effective concentration (EC50), the %-Ctrl-values were plotted in a semi-logarithmic graph against the conc. of the compound of interest. The data points were fitted to a sigmoid curve function (f(x)=((%-Ctrlmax−%-Ctrlmin)/(1−(EC50/x **^n(Hill)))+%-Ctrlmin)) by a non-linear regression analysis.
* Hepes-buffer (50 mM Hepes, pH 7.0, 5 mM MgCl2, 50 mM KCl, 1.5 mM PEP, 0.1% BSA). DTT was added to the Hepes-buffer from a 200X stock solution (in Millipore H2O) freshly each day. The final concentration of DTT in the Hepes-buffer is 2 mM.

`O=C(Nc1ccccn1)C1CCOc2cc(Cl)c(Cl)cc2C1=O` (stereo not drawn) [Compound 1, 7,8-Dichloro-5-oxo-2,3,4,5-tetrahydro-benzo[b]oxepine-4-carboxylic acid pyridine-2-ylamide] was tested, and the “hGK % CTL” value was 312 % CTL.

In the case of `O=C(Nc1nccs1)C1CCOc2cc(Cl)ccc2C1=O` (stereo not drawn) [Compound 7, 8-Chloro-5-oxo-2,3,4,5-tetrahydro-benzo[b]oxepine-4-carboxylic acid thiazol-2-ylamide], the “hGK % CTL” value is reported as 215 % CTL.

For `O=C(Nc1nccs1)C1=Cc2ccccc2OCC1` [Compound 18, 2,3-Dihydro-benzo[b]oxepine-4-carboxylic acid thiazol-2-ylamide], the “hGK % CTL” value was 161 % CTL.

For `CCc1ccc2c(c1)OCC(C)(C)C(C(=O)Nc1ccccn1)C2=O` (stereo not drawn) [Compound 17, 8-Ethyl-3,3-dimethyl-5-oxo-2,3,4,5-tetrahydro-benzo[b]oxepine-4-carboxylic acid pyridin-2-ylamide], the “hGK % CTL” value was 104 % CTL.

`O=C(Nc1nccs1)C1CCOc2cc(F)ccc2C1=O` (stereo not drawn) [Compound 2, 8-Fluoro-5-oxo-2,3,4,5-tetrahydro-benzo[b]oxepine-4-carboxylic acid thiazol-2-ylamide] was tested, and the “hGK % CTL” value was 218 % CTL.

In the case of `O=C(Nc1nccs1)C1CCOc2ccccc2C1=O` (stereo not drawn) [Compound 14, 5-Oxo-2,3,4,5-tetrahydro-benzo[b]oxepine-4-carboxylic acid thiazol-2-ylamide], the “hGK % CTL” value is reported as 115 % CTL.

`O=C(Nc1nccs1)C1CCOc2ccc(Cl)cc2C1=O` (stereo not drawn) [Compound 11, 7-Chloro-5-oxo-2,3,4,5-tetrahydro-benzo[b]oxepine-4-carboxylic acid thiazol-2-ylamide] was tested, and the “hGK % CTL” value was 121 % CTL.

For `COc1ccc2c(c1)C(=O)C(C(=O)Nc1ccccn1)CCO2` (stereo not drawn) [Compound 12, 7-Methoxy-5-oxo-2,3,4,5-tetrahydro-benzo[b]oxepine-4-carboxylic acid pyridin-2-ylamide], the “hGK % CTL” value was 149 % CTL.

In the case of `CCc1ccc2c(c1)OCCC(C(=O)Nc1nccs1)C2=O` (stereo not drawn) [Compound 9, 8-Ethyl-5-oxo-2,3,4,5-tetrahydro-benzo[b]oxepine-4-carboxylic acid thiazol-2-ylamide], the “hGK % CTL” value is reported as 207 % CTL.

In the case of `O=C(Nc1ccccn1)C1CCOc2ccc(Oc3ccccc3)cc2C1=O` (stereo not drawn) [Compound 15, 5-Oxo-7-phenoxy-2,3,4,5-tetrahydro-benzo[b]oxepine-4-carboxylic acid pyridin-2-ylamide], the “hGK % CTL” value is reported as 94 % CTL.

With `O=C(Nc1ccccn1)C1CCOc2ccc(Cl)cc2C1=O` (stereo not drawn) [Compound 10, 7-Chloro-5-oxo-2,3,4,5-tetrahydro-benzo[b]oxepine-4-carboxylic acid pyridin-2-ylamide] the “hGK % CTL” value was 192 % CTL.

With `O=C(Nc1ccccn1)C1CCOc2ccccc2C1=O` (stereo not drawn) [Compound 6, 5-Oxo-2,3,4,5-tetrahydro-benzo[b]oxepine-4-carboxylic acid pyridin-2-ylamide] the “hGK % CTL” value was 245 % CTL.

With `O=C(Nc1nccs1)C1CCOc2cc(Cl)c(Cl)cc2C1=O` (stereo not drawn) [Compound 8, 7,8-Dichloro-5-oxo-2,3,4,5-tetrahydro-benzo[b]oxepine-4-carboxylic acid thiazol-2-ylamide] the “hGK % CTL” value was 194 % CTL.

`CC1(C)COc2cc(-c3ccc(F)cc3)ccc2C(=O)C1C(=O)Nc1ccccn1` (stereo not drawn) [Compound 13, 8-(4-Fluoro-phenyl)-3,3-dimethyl-5-oxo-2,3,4,5-tetrahydro-benzo[b]oxepine-4-carboxylic acid pyridin-2-ylamide] was tested, and the “hGK % CTL” value was 124 % CTL.

In the case of `O=C(Nc1ccccn1)C1CCOc2cc(Cl)ccc2C1=O` (stereo not drawn) [Compound 5, 8-Chloro-5-oxo-2,3,4,5-tetrahydro-benzo[b]oxepine-4-carboxylic acid pyridin-2-ylamide], the “hGK % CTL” value is reported as 388 % CTL.

In the case of `CCc1ccc2c(c1)OCCC(C(=O)Nc1ccccn1)C2=O` (stereo not drawn) [Compound 3, 8-Ethyl-5-oxo-2,3,4,5-tetrahydro-benzo[b]oxepine-4-carboxylic acid pyridine-2-ylamide], the “hGK % CTL” value is reported as 291 % CTL.

For `O=C(Nc1ccccn1)C1=Cc2ccccc2OCC1` [Compound 4, 2,3-Dihydro-benzo[b]oxepine-4-carboxylic acid pyridin-2-ylamide], the “hGK % CTL” value was 129 % CTL.

With `CC1(C)COc2cc(Cl)c(F)cc2C(=O)C1C(=O)Nc1ccccn1` (stereo not drawn) [Compound 16, 8-Chloro-7-fluoro-3,3-dimethyl-5-oxo-2,3,4,5-tetrahydro-benzo[b]oxepine-4-carboxylic acid pyridin-2-ylamide] the “hGK % CTL” value was 181 % CTL.
